Results on six compounds are retold here after patent publication US6936585B2, “Corticotropin releasing factor 2 receptor agonists” (priority 2002, dated 2005).

pEC50: −log10 of the molar value. Peptide text beside a SMILES is read from it. Bounds are passed on as bounds.

One assay has as its target T1, CRF2R (Homo sapiens, UniProt Q13324).
T1 sequence (Q13324 1-411): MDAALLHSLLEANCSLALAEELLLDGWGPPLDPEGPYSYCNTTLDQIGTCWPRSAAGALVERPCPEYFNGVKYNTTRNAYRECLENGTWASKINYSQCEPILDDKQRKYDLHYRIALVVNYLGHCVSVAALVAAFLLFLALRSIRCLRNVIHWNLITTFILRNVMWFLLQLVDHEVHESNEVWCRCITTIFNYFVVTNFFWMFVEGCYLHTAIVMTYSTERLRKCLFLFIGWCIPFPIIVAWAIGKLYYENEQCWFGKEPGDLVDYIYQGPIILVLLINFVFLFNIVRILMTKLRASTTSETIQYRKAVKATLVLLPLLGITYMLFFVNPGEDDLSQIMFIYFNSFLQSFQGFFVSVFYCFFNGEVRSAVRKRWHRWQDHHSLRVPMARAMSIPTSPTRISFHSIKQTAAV
As to the kind of experiment: CRF2R agonist activation (EC50 / Emax), called comparative CRF binding. The assay is classed as cell-based. The following applies: for Emax: read-out: CRF2R Emax; for pEC50: read-out: CRF2R EC50. The essentials: (§1)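 Peptides are tested on cells bearing CRF1R or CRF2R, full length or as ligand-binding-domain constructs coupled to reporters or G proteins. Activation is scored by cAMP rise, measured in lysates or by CRE-reporter output, against vehicle control.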

For the next assay, the target named is T2, CRF1R (Homo sapiens, UniProt P34998).
T2 sequence (P34998 24-415): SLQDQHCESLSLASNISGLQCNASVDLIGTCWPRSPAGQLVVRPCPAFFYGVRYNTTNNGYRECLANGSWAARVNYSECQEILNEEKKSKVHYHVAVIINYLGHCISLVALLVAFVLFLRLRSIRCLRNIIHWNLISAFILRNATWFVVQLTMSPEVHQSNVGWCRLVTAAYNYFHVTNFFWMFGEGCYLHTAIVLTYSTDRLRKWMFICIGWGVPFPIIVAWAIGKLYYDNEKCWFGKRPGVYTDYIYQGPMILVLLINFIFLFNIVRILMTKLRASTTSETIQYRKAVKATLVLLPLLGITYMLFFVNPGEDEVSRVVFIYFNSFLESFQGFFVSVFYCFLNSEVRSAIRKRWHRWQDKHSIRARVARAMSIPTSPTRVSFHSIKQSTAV
As to the kind of experiment: CRF1R agonist activation (EC50 / Emax), called comparative CRF binding. The assay is classed as cell-based. The following applies: for Emax: read-out: CRF1R Emax; for pEC50: read-out: CRF1R EC50. The essentials: as §1

In the case of `CC[C@H](C)[C@H](N)C(=O)N[C@H](C(=O)N[C@@H](CC(C)C)C(=O)N[C@@H](CO)C(=O)N[C@@H](CC(C)C)C(=O)N[C@@H](CC(=O)O)C(=O)N[C@H](C(=O)N1CCC[C@H]1C(=O)N[C@H](C(=O)NCC(=O)N[C@@H](CC(C)C)C(=O)N[C@@H](CC(C)C)C(=O)N[C@@H](CCC(N)=O)C(=O)N[C@H](C(=O)N[C@@H](CC(C)C)C(=O)N[C@@H](CC(C)C)C(=O)N[C@@H](CCC(=O)O)C(=O)N[C@@H](CCC(N)=O)C(=O)N[C@@H](CCC(=O)O)C(=O)N[C@@H](CCCCN)C(=O)N[C@@H](CCC(N)=O)C(=O)N[C@@H](CCCNC(=N)N)C(=O)N[C@@H](C)C(=O)N[C@@H](C)C(=O)N[C@@H](CCCNC(=N)N)C(=O)N[C@@H](CCC(=O)O)C(=O)N[C@@H](CCC(N)=O)C(=O)N[C@@H](C)C(=O)N[C@H](C(=O)N[C@H](C(=O)N[C@@H](CC(N)=O)C(=O)N[C@@H](C)C(=O)N[C@@H](CCCNC(=N)N)C(=O)N[C@H](C(=O)N[C@@H](CC(C)C)C(=O)N[C@@H](C)C(=O)N[C@@H](CCCNC(=N)N)C(=O)N[C@H](C(N)=O)C(C)C)[C@@H](C)CC)[C@@H](C)O)[C@@H](C)O)[C@@H](C)CC)[C@@H](C)CC)C(C)C)C(C)C` [compound 115] (H-IVLSLDVPIGLLQILLEQEKQRAAREQATTNARILARV-NH2; N-terminus assumed), the maximal response (Emax) was found to be 98% on CRF2R and 7% on CRF1R.
The matching figures for `CC[C@H](C)[C@H](N)C(=O)N[C@H](C(=O)N[C@@H](CC(C)C)C(=O)N[C@@H](CO)C(=O)N[C@@H](CC(C)C)C(=O)N[C@@H](CC(=O)O)C(=O)N[C@H](C(=O)N1CCC[C@H]1C(=O)N[C@H](C(=O)NCC(=O)N[C@@H](CC(C)C)C(=O)N[C@@H](CC(C)C)C(=O)N[C@@H](CCC(N)=O)C(=O)N[C@H](C(=O)N[C@@H](CC(C)C)C(=O)N[C@@H](CC(C)C)C(=O)N[C@@H](CCC(=O)O)C(=O)N[C@@H](CCC(N)=O)C(=O)N[C@H](C(=O)N[C@@H](CCCCN)C(=O)N[C@@H](C)C(=O)N[C@@H](CC(N)=O)C(=O)N[C@@H](C)C(=O)N[C@@H](C)C(=O)N[C@@H](CCCNC(=N)N)C(=O)N[C@@H](CCC(=O)O)C(=O)N[C@@H](CCC(N)=O)C(=O)N[C@@H](C)C(=O)N[C@H](C(=O)N[C@H](C(=O)N[C@H](C(=O)N[C@@H](C)C(=O)N[C@@H](CCCNC(=N)N)C(=O)N[C@H](C(=O)N[C@@H](CC(C)C)C(=O)N[C@@H](C)C(=O)N[C@@H](CCCNC(=N)N)C(=O)N[C@H](C(N)=O)C(C)C)[C@@H](C)CC)C(C)C)[C@@H](C)O)[C@@H](C)O)[C@@H](C)O)[C@@H](C)CC)[C@@H](C)CC)C(C)C)C(C)C` [compound 116] (H-IVLSLDVPIGLLQILLEQTKANAAREQATTVARILARV-NH2): 26.4% and 4.8%.
The matching figures for `CC[C@H](C)[C@H](N)C(=O)N[C@H](C(=O)N[C@@H](CC(C)C)C(=O)N[C@@H](CO)C(=O)N[C@@H](CC(C)C)C(=O)N[C@@H](CC(=O)O)C(=O)N[C@H](C(=O)N1CCC[C@H]1C(=O)N[C@H](C(=O)NCC(=O)N[C@@H](CC(C)C)C(=O)N[C@@H](CC(C)C)C(=O)N[C@@H](CCC(N)=O)C(=O)N[C@H](C(=O)N[C@@H](CC(C)C)C(=O)N[C@@H](CC(C)C)C(=O)N[C@@H](CCC(=O)O)C(=O)N[C@@H](CCC(N)=O)C(=O)N[C@H](C(=O)N[C@@H](CCCCN)C(=O)N[C@@H](C)C(=O)N[C@@H](CCCNC(=N)N)C(=O)N[C@@H](C)C(=O)N[C@@H](C)C(=O)N[C@@H](CCCNC(=N)N)C(=O)N[C@@H](CCC(=O)O)C(=O)N[C@@H](CCC(N)=O)C(=O)N[C@@H](C)C(=O)N[C@H](C(=O)N[C@H](C(=O)N[C@@H](CC(N)=O)C(=O)N[C@@H](C)C(=O)N[C@@H](CCCNC(=N)N)C(=O)N[C@H](C(=O)N[C@@H](CC(C)C)C(=O)N[C@@H](C)C(=O)N[C@@H](CCCNC(=N)N)C(=O)N[C@H](C(N)=O)C(C)C)[C@@H](C)CC)[C@@H](C)O)[C@@H](C)O)[C@@H](C)O)[C@@H](C)CC)[C@@H](C)CC)C(C)C)C(C)C` [compound 117] (H-IVLSLDVPIGLLQILLEQTKARAAREQATTNARILARV-NH2): 98.8% and 7.8%.
The matching figures for `CC[C@H](C)[C@H](N)C(=O)N[C@H](C(=O)N[C@@H](CC(C)C)C(=O)N[C@@H](CO)C(=O)N[C@@H](CC(C)C)C(=O)N[C@@H](CC(=O)O)C(=O)N[C@H](C(=O)N1CCC[C@H]1C(=O)N[C@H](C(=O)NCC(=O)N[C@@H](CC(C)C)C(=O)N[C@@H](CC(C)C)C(=O)N[C@@H](CCC(N)=O)C(=O)N[C@H](C(=O)N[C@@H](CC(C)C)C(=O)N[C@@H](CC(C)C)C(=O)N[C@@H](CCC(=O)O)C(=O)N[C@@H](CCC(N)=O)C(=O)N[C@@H](CCC(=O)O)C(=O)N[C@@H](CCCNC(=N)N)C(=O)N[C@@H](CCC(N)=O)C(=O)N[C@@H](CCC(=O)O)C(=O)N[C@@H](C)C(=O)N[C@@H](C)C(=O)N[C@@H](CCCNC(=N)N)C(=O)N[C@@H](CCC(=O)O)C(=O)N[C@@H](CCC(N)=O)C(=O)N[C@@H](C)C(=O)N[C@H](C(=O)N[C@H](C(=O)N[C@@H](CC(N)=O)C(=O)N[C@@H](C)C(=O)N[C@@H](CCCNC(=N)N)C(=O)N[C@H](C(=O)N[C@@H](CC(C)C)C(=O)N[C@@H](C)C(=O)N[C@@H](CCCNC(=N)N)C(=O)N[C@H](C(N)=O)C(C)C)[C@@H](C)CC)[C@@H](C)O)[C@@H](C)O)[C@@H](C)CC)[C@@H](C)CC)C(C)C)C(C)C` [compound 118] (H-IVLSLDVPIGLLQILLEQERQEAAREQATTNARILARV-NH2; N-terminus assumed): 100% and 5%.
`CC[C@H](C)[C@H](N)C(=O)N[C@H](C(=O)N[C@@H](CC(C)C)C(=O)N[C@@H](CO)C(=O)N[C@@H](CC(C)C)C(=O)N[C@@H](CC(=O)O)C(=O)N[C@H](C(=O)N1CCC[C@H]1C(=O)N[C@H](C(=O)NCC(=O)N[C@@H](CC(C)C)C(=O)N[C@@H](CC(C)C)C(=O)N[C@@H](CCC(N)=O)C(=O)N[C@H](C(=O)N[C@@H](CC(C)C)C(=O)N[C@@H](CC(C)C)C(=O)N[C@@H](CCC(=O)O)C(=O)N[C@@H](CCC(N)=O)C(=O)N[C@@H](CCC(=O)O)C(=O)N[C@@H](CCCNC(=N)N)C(=O)N[C@@H](C)C(=O)N[C@@H](CCCNC(=N)N)C(=O)N[C@@H](C)C(=O)N[C@@H](C)C(=O)N[C@@H](CCCNC(=N)N)C(=O)N[C@@H](CCC(=O)O)C(=O)N[C@@H](CCC(N)=O)C(=O)N[C@@H](C)C(=O)N[C@H](C(=O)N[C@H](C(=O)N[C@@H](CC(N)=O)C(=O)N[C@@H](C)C(=O)N[C@@H](CCCNC(=N)N)C(=O)N[C@H](C(=O)N[C@@H](CC(C)C)C(=O)N[C@@H](C)C(=O)N[C@@H](CCCNC(=N)N)C(=O)N[C@H](C(N)=O)C(C)C)[C@@H](C)CC)[C@@H](C)O)[C@@H](C)O)[C@@H](C)CC)[C@@H](C)CC)C(C)C)C(C)C` [compound 119] (H-IVLSLDVPIGLLQILLEQERARAAREQATTNARILARV-NH2; N-terminus assumed): the pEC50 on CRF2R was 8.45; at CRF1R it was less than 7.00. The Emax stood at 95% at CRF2R and 3% at CRF1R.
The matching figures for `CC[C@H](C)[C@H](N)C(=O)N[C@H](C(=O)N[C@@H](CC(C)C)C(=O)N[C@@H](CO)C(=O)N[C@@H](CC(C)C)C(=O)N[C@@H](CCC(=O)O)C(=O)N[C@H](C(=O)N1CCC[C@H]1C(=O)N[C@H](C(=O)NCC(=O)N[C@@H](CC(C)C)C(=O)N[C@@H](CC(C)C)C(=O)N[C@@H](CCC(N)=O)C(=O)N[C@H](C(=O)N[C@@H](CC(C)C)C(=O)N[C@@H](CC(C)C)C(=O)N[C@@H](CCC(=O)O)C(=O)N[C@@H](CCC(N)=O)C(=O)N[C@@H](C)C(=O)N[C@@H](CCCNC(=N)N)C(=O)N[C@@H](C)C(=O)N[C@@H](CCCNC(=N)N)C(=O)N[C@@H](C)C(=O)N[C@@H](C)C(=O)N[C@@H](CCCNC(=N)N)C(=O)N[C@@H](CCC(=O)O)C(=O)N[C@@H](CCC(N)=O)C(=O)N[C@@H](C)C(=O)N[C@H](C(=O)N[C@H](C(=O)N[C@@H](CC(N)=O)C(=O)N[C@@H](C)C(=O)N[C@@H](CCCNC(=N)N)C(=O)N[C@H](C(=O)N[C@@H](CC(C)C)C(=O)N[C@@H](C)C(=O)N[C@@H](CCCNC(=N)N)C(=O)N[C@H](C(N)=O)C(C)C)[C@@H](C)CC)[C@@H](C)O)[C@@H](C)O)[C@@H](C)CC)[C@@H](C)CC)C(C)C)C(C)C` [compound 120] (H-IVLSLEVPIGLLQILLEQARARAAREQATTNARILARV-NH2; N-terminus assumed): 7.16, not above 7.00, 100% and 7%.
